The source of these data is US9896418B2, “Aryl ethers and uses thereof” (Peloton Therapeutics, Inc., priority 2013, dated 2018).

pIC50: −log10 of the molar value.

In this test the test system is HIF-2α HIS TAG-PASB Domain. Put plainly: HIF-2α Scintillation Proximity Assay (SPA). The test is classed as binding. The procedure:
The percent inhibition was determined and IC50 values were calculated using the Dotmatics system based on the following equation: % inhibition=[(high control−sample)/(high control−low control)]×100.
For orientation: SPA uses beads or plates that emit light when radiolabelled molecules are held near them.

The term pIC50 denotes −log10 of the IC50, conventionally taken in molar units. Read a low pIC50 as a large IC50. In turn, `N#CCS(=O)(=O)c1ccc(Oc2cc(F)cc(F)c2)c2c1C(O)CC2` (stereo not drawn) [Compound 14, 2-[7-(3,5-difluorophenoxy)-3-hydroxy-indan-4-yl]sulfonylacetonitrile] gave a pIC50 of 5.28.

`CNS(=O)(=O)c1ccc(Oc2cc(F)cc(F)c2)c2c1C(O)CC2` (stereo not drawn) [Compound 211, 7-(3,5-Difluorophenoxy)-3-hydroxy-N-methyl-2,3-dihydro-1H-indene-4-sulfonamide]: the pIC50 is 5.68.

In turn, `Cc1c(Oc2cc(F)cc(C#N)c2)ccc(S(=O)(=O)C(F)(F)F)c1C=O` [Compound 145, 3-Fluoro-5-[3-formyl-2-methyl-4-(trifluoromethylsulfonyl)phenoxy]benzonitrile] gave a pIC50 of 7.13.

With `CS(=O)(=O)c1ccc(Oc2cc(F)cc(C#N)c2)c2c1[C@H](N)C(F)(F)[C@@H]2F` [Compound 346], the pIC50 is 6.29. Against the preceding molecule, the pIC50 is 0.84 log units lower.

`CS(=O)(=O)c1ccc(Oc2cc(F)cc(Cl)c2)c(C(F)F)c1C#N` [Compound 92, 3-(3-Chloro-5-fluorophenoxy)-2-(difluoromethyl)-6-(methylsulfonyl)benzonitrile] had a pIC50 of 7.43.

As to `CCS(=O)(=O)c1ccc(Oc2cc(F)cc(C#N)c2)c2c1C(O)CC2` (stereo not drawn) [Compound 205, 3-((7-(Ethylsulfonyl)-1-hydroxy-2,3-dihydro-1H-inden-4-yl)oxy)-5-fluorobenzonitrile], the pIC50 was 5.62.

On to `O=S(=O)(c1ccc(Oc2cc(F)cc(CO)c2)c(Br)c1)C(F)(F)F` [Compound 177, (3-(2-Bromo-4-((trifluoromethyl)sulfonyl)phenoxy)-5-fluorophenyl)methanol], for which the pIC50 was 4.74.

On to `CS(=O)(=O)c1ccc(Oc2cc(F)cc(C#N)c2)c(C#N)c1Cl` [Compound 152, 2-chloro-6-(3-cyano-5-fluorophenoxy)-3-(methylsulfonyl)benzonitrile], for which the pIC50 was 6.49.

`N#Cc1cc(F)cc(Oc2ccc(S(N)(=O)=O)c3c2[C@@H](O)C(F)(F)[C@H]3O)c1` [Compound 337, (1R,3S)-7-(3-cyano-5-fluoro-phenoxy)-2,2-difluoro-1,3-dihydroxy-indane-4-sulfonamide] had a pIC50 of 5.44.

For `O=S(=O)(c1ccc(Oc2ccc(Cl)c(Cl)c2)c(Br)c1)C(F)(F)F` [Compound 169, 2-Bromo-1-(3,4-dichlorophenoxy)-4-((trifluoromethyl)sulfonyl)benzene], the pIC50 is 5.72. Compared with the last molecule, the pIC50 is 0.28 log units higher.

`N#CN=S(=O)(c1ccc(Oc2cc(F)cc(C#N)c2)c2c1[C@H](O)[C@H](F)C2)C(F)F` (stereo partly drawn) [Compound 297, N-(((2R,3S)-7-(3-cyano-5-fluorophenoxy)-2-fluoro-3-hydroxy-2,3-dihydro-1H-inden-4-yl)(difluoromethyl)(oxo)-λ^6-sulfanylidene)cyanamide] gave a pIC50 of 4.91.

Regarding `CC(O)c1c(S(=O)(=O)C(F)(F)F)ccc(Oc2cc(F)cc(Cl)c2)c1Br` (stereo not drawn) [Compound 103, 1-(2-Bromo-3-(3-chloro-5-fluorophenoxy)-6-((trifluoromethyl)sulfonyl)phenyl)ethan-1-ol], the pIC50 is 6.52.

As to `O=S(=O)(c1ccc(Oc2cc(F)cc(Cl)c2)c(Cl)c1CNCC(F)(F)F)C(F)F` [Compound 47, N-(2-Chloro-3-(3-chloro-5-fluorophenoxy)-6-((difluoromethyl)sulfonyl)benzyl)-2,2,2-trifluoroethan-1-amine], the pIC50 is 5.05.

In turn, `O=S(=O)(c1ccc(Oc2cccc(C(F)(F)F)c2)c(Br)c1CO)C(F)F` [Compound 89, (2-Bromo-6-((difluoromethyl)sulfonyl)-3-(3-(trifluoromethyl)phenoxy)phenyl)methanol] had a pIC50 of 5.85.

In turn, `N#Cc1cc(Oc2ccc(S(=O)(=O)C(F)(F)F)c3c2CCC3O)ccc1F` (stereo not drawn) [Compound 216, 2-Fluoro-5-((1-hydroxy-7-((trifluoromethyl)sulfonyl)-2,3-dihydro-1H-inden-4-yl)oxy)benzonitrile] gave a pIC50 of 5.57.

For the molecule `O=S(=O)(c1ccc(Oc2cc(F)cc(Cl)c2)c(Br)c1CO)C(F)(F)F` [Compound 102, (2-Bromo-3-(3-chloro-5-fluorophenoxy)-6-((trifluoromethyl)sulfonyl)phenyl)methanol], the pIC50 was 6.92.

In turn, `O=S(=O)(c1ccc(Oc2cncc(F)c2)c2c1[C@H](O)CC2)C(F)F` [Compound 5, (R)-7-((difluoromethyl)sulfonyl)-4-((5-fluoropyridin-3-yl)oxy)-2,3-dihydro-1H-inden-1-ol] had a pIC50 of 6.05.

In turn, `CS(=O)(=O)c1ccc(Oc2cncc(F)c2)c2c1[C@H](O)C(F)(F)[C@@H]2F` [Compound 329, (1S,3R)-2,2,3-trifluoro-4-((5-fluoropyridin-3-yl)oxy)-7-(methylsulfonyl)-2,3-dihydro-1H-inden-1-ol] had a pIC50 greater than 8.30.

Turning to `N#Cc1c(Oc2cc(F)cc(Cl)c2)ccc(S(=O)(=O)C(F)(F)F)c1C(=O)O` [Compound 105, 3-(3-Chloro-5-fluorophenoxy)-2-cyano-6-((trifluoromethyl)sulfonyl)benzoic acid], the pIC50 was 4.92.

Molecule `Cc1ccc(Cl)cc1Oc1ccc(S(=O)(=O)C(F)(F)F)cc1Br` [Compound 174, 2-Bromo-1-(5-chloro-2-methylphenoxy)-4-((trifluoromethyl)sulfonyl)benzene] gave a pIC50 of 5.92.

`C/C=C/c1c(S(=O)(=O)C(F)F)ccc(Oc2cc(F)cc(C#N)c2)c1C#N` [Compound 178, (E)-6-(3-Cyano-5-fluorophenoxy)-3-((difluoromethyl)sulfonyl)-2-(prop-1-en-1-yl)benzonitrile]: the pIC50 is 6.04. This pIC50 and that of the molecule before are within 0.2 log units of each other.

In the case of `N#CN=S(=O)(CF)c1ccc(Oc2cc(F)cc(C#N)c2)c2c1[C@H](O)CC2` (stereo partly drawn) [Compound 282, N—(((R)-7-(3-cyano-5-fluorophenoxy)-3-hydroxy-2,3-dihydro-1H-inden-4-yl)(fluoromethyl)(oxo)-λ^6-sulfanylidene)cyanamide], the pIC50 was 5.14.

`O=S(=O)(c1ccc(Oc2cncc(Cl)c2)c2c1[C@H](O)CC2)C(F)(F)F` [Compound 184, (R)-4-((5-Chloropyridin-3-yl)oxy)-7-((trifluoromethyl)sulfonyl)-2,3-dihydro-1H-inden-1-ol] showed a negative logarithm of the IC50 (pIC50) of 6.14.

`O[C@@H]1CCc2c(Oc3cc(F)cc(F)c3)ccc(C(F)(F)F)c21` [Example 58, (R)-4-(3,5-Difluorophenoxy)-7-(trifluoromethyl)-2,3-dihydro-1H-inden-1-ol] showed a pIC50 greater than 8.30.

In turn, `O=S(=O)(c1ccc(Oc2cccc3[nH]ncc23)c2c1[C@H](O)C(F)(F)C2)C(F)(F)F` [Compound 263, (S)-4-((1H-Indazol-4-yl)oxy)-2,2-difluoro-7-((trifluoromethyl)sulfonyl)-2,3-dihydro-1H-inden-1-ol] had a pIC50 of 7.60.

As for `N#Cc1cc(Oc2ccc(S(=O)(=O)C(F)(F)F)c3c2CC(F)(F)[C@H]3O)c[n+]([O-])c1` [Example 267, (S)-3-cyano-5-((2,2-difluoro-1-hydroxy-7-((trifluoromethyl)sulfonyl)-2,3-dihydro-1H-inden-4-yl)oxy)pyridine 1-oxide], the pIC50 is 7.04.

On to `CS(=N)(=O)c1ccc(Oc2cc(F)cc(Cl)c2)c(C#N)c1Cl` (stereo not drawn) [Compound 180, 2-Chloro-6-(3-chloro-5-fluorophenoxy)-3-(S-methylsulfonimidoyl)benzonitrile], for which the pIC50 is 5.03. This pIC50 is 2.01 log units lower than that of the molecule before.
